Data published in PubChem BioAssay (NCI).
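Test compounds were applied to cells in 96-well plates for 48 hours at 5 doses. Abbreviation: GI50, concentration required for 50% inhibition of growth. The concentration for full growth arrest is given as TGI.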

What was measured:
Experiment in all cases: NCI tumour cell line growth inhibition, 48 h
786-0 renal = system: 786-0 renal
A549 NSCLC = system: A549 NSCLC
ACHN renal = system: ACHN renal
BT-549 breast = system: BT-549 breast
CAKI-1 renal = system: CAKI-1 renal
CCRF-CEM leukemia = system: CCRF-CEM leukemia
COLO 205 colon = system: COLO 205 colon
DU-145 prostate = system: DU-145 prostate
EKVX NSCLC = system: EKVX NSCLC
HCC-2998 colon = system: HCC-2998 colon
HCT-116 colon = system: HCT-116 colon
HCT-15 colon = system: HCT-15 colon
HL-60(TB) leukemia = system: HL-60(TB) leukemia
HOP-62 NSCLC = system: HOP-62 NSCLC
HOP-92 NSCLC = system: HOP-92 NSCLC
HS 578T breast = system: HS 578T breast
HT29 colon = system: HT29 colon
IGROV1 ovarian = system: IGROV1 ovarian
K-562 leukemia = system: K-562 leukemia
KM12 colon = system: KM12 colon
M14 melanoma = system: M14 melanoma
MALME-3M melanoma = system: MALME-3M melanoma
MCF7 breast = system: MCF7 breast
MDA-MB-231 breast = system: MDA-MB-231 breast
MDA-MB-435 = system: MDA-MB-435
MOLT-4 leukemia = system: MOLT-4 leukemia
NCI-H226 lung = system: NCI-H226 lung
NCI-H23 lung = system: NCI-H23 lung
NCI-H460 lung = system: NCI-H460 lung
NCI-H522 lung = system: NCI-H522 lung
NCI/ADR-RES ovarian = system: NCI/ADR-RES ovarian
OVCAR-3 ovarian = system: OVCAR-3 ovarian
OVCAR-4 ovarian = system: OVCAR-4 ovarian
OVCAR-5 ovarian = system: OVCAR-5 ovarian
OVCAR-8 ovarian = system: OVCAR-8 ovarian
PC-3 prostate = system: PC-3 prostate
RPMI-8226 leukemia = system: RPMI-8226 leukemia
RXF 393 renal = system: RXF 393 renal
SF-268 CNS = system: SF-268 CNS
SF-295 CNS = system: SF-295 CNS
SF-539 CNS = system: SF-539 CNS
SK-MEL-2 melanoma = system: SK-MEL-2 melanoma
SK-MEL-28 melanoma = system: SK-MEL-28 melanoma
SK-MEL-5 melanoma = system: SK-MEL-5 melanoma
SK-OV-3 ovarian = system: SK-OV-3 ovarian
SN12C renal = system: SN12C renal
SNB-19 CNS = system: SNB-19 CNS
SR leukemia = system: SR leukemia
SW-620 colon = system: SW-620 colon
T-47D breast = system: T-47D breast
TK-10 renal = system: TK-10 renal
U251 CNS = system: U251 CNS
UACC-257 melanoma = system: UACC-257 melanoma
UACC-62 melanoma = system: UACC-62 melanoma
UO-31 renal = system: UO-31 renal
A498 renal = system: A498 renal
LOX IMVI melanoma = system: LOX IMVI melanoma
SNB-75 CNS = system: SNB-75 CNS

## O=C1/C(=C/c2ccccc2)SC(=Nc2ccccc2)N1Nc1ccccc1
786-0 renal
  GI50: 6.57 µM
  TGI: > 100 µM
A549 NSCLC
  GI50: 12 µM
  TGI: > 100 µM
ACHN renal
  GI50: 23 µM
  TGI: > 100 µM
BT-549 breast
  GI50: 6.51 µM
  TGI: 35.7 µM
CAKI-1 renal
  GI50: 13.7 µM
  TGI: > 100 µM
CCRF-CEM leukemia
  GI50: 4.07 µM
  TGI: > 100 µM
COLO 205 colon
  GI50: 20.3 µM
  TGI: > 100 µM
DU-145 prostate
  GI50: 32.2 µM
  TGI: > 100 µM
EKVX NSCLC
  GI50: 7.28 µM
  TGI: > 100 µM
HCC-2998 colon
  GI50: 20 µM
  TGI: > 100 µM
HCT-116 colon
  GI50: 4.49 µM
  TGI: > 100 µM
HCT-15 colon
  GI50: 5.1 µM
  TGI: > 100 µM
HL-60(TB) leukemia
  GI50: 10.4 µM
  TGI: 68.9 µM
HOP-62 NSCLC
  GI50: 23.4 µM
  TGI: > 100 µM
HOP-92 NSCLC
  GI50: 3.6 µM
  TGI: 42.2 µM
HS 578T breast
  GI50: 29 µM
  TGI: > 100 µM
HT29 colon
  GI50: 10.8 µM
  TGI: > 100 µM
IGROV1 ovarian
  GI50: 12.7 µM
  TGI: > 100 µM
K-562 leukemia
  GI50: 6.08 µM
  TGI: > 100 µM
KM12 colon
  GI50: 19 µM
  TGI: > 100 µM
M14 melanoma
  GI50: 12.3 µM
  TGI: 42.8 µM
MALME-3M melanoma
  GI50: 19.8 µM
  TGI: 66.8 µM
MCF7 breast
  GI50: 7.91 µM
  TGI: 83.5 µM
MDA-MB-231 breast
  GI50: 18.7 µM
  TGI: > 100 µM
MDA-MB-435
  GI50: 15.1 µM
  TGI: 48 µM
MOLT-4 leukemia
  GI50: 5.14 µM
  TGI: > 100 µM
NCI-H226 lung
  GI50: 10.9 µM
  TGI: 30.5 µM
NCI-H23 lung
  GI50: 22.6 µM
  TGI: > 100 µM
NCI-H460 lung
  GI50: 15.9 µM
  TGI: 57.3 µM
NCI-H522 lung
  GI50: 15.5 µM
  TGI: 84.8 µM
NCI/ADR-RES ovarian
  GI50: 18.1 µM
  TGI: > 100 µM
OVCAR-3 ovarian
  GI50: 10.2 µM
  TGI: 91.2 µM
OVCAR-4 ovarian
  GI50: 7.96 µM
  TGI: > 100 µM
OVCAR-5 ovarian
  GI50: 34.1 µM
  TGI: > 100 µM
OVCAR-8 ovarian
  GI50: 27.3 µM
  TGI: > 100 µM
PC-3 prostate
  GI50: 4.49 µM
  TGI: > 100 µM
RPMI-8226 leukemia
  GI50: 3.94 µM
  TGI: 27.4 µM
RXF 393 renal
  GI50: 8.44 µM
  TGI: 30 µM
SF-268 CNS
  GI50: 31.3 µM
  TGI: > 100 µM
SF-295 CNS
  GI50: 16.3 µM
  TGI: > 100 µM
SF-539 CNS
  GI50: 27.2 µM
  TGI: 99.5 µM
SK-MEL-2 melanoma
  GI50: 14.9 µM
  TGI: 43.7 µM
SK-MEL-28 melanoma
  GI50: 16.2 µM
  TGI: 71 µM
SK-MEL-5 melanoma
  GI50: 14.4 µM
  TGI: 28.8 µM
SK-OV-3 ovarian
  GI50: 24.4 µM
  TGI: > 100 µM
SN12C renal
  GI50: 5.48 µM
  TGI: 23.4 µM
SNB-19 CNS
  GI50: 13.5 µM
  TGI: > 100 µM
SR leukemia
  GI50: 21.3 µM
  TGI: > 100 µM
SW-620 colon
  GI50: 17.6 µM
  TGI: > 100 µM
T-47D breast
  GI50: 5.41 µM
  TGI: > 100 µM
TK-10 renal
  GI50: 36.5 µM
  TGI: > 100 µM
U251 CNS
  GI50: 12.9 µM
  TGI: > 100 µM
UACC-257 melanoma
  GI50: 14.2 µM
  TGI: > 100 µM
UACC-62 melanoma
  GI50: 10.3 µM
  TGI: 39.4 µM
UO-31 renal
  GI50: 7.94 µM
  TGI: > 100 µM

## COc1ccc(/C=C(/C(=O)N2CCCC2)c2cc(OC)c(OC)c(OC)c2)cc1N
786-0 renal
  GI50: 2.7 µM
  TGI: > 100 µM
A498 renal
  GI50: 1.26 µM
  TGI: > 100 µM
A549 NSCLC
  GI50: 4.14 µM
  TGI: > 100 µM
ACHN renal
  GI50: 5.73 µM
  TGI: > 100 µM
BT-549 breast
  GI50: 6.52 µM
  TGI: 57.8 µM
CAKI-1 renal
  GI50: 2.35 µM
  TGI: > 100 µM
CCRF-CEM leukemia
  GI50: 3.19 µM
  TGI: > 100 µM
COLO 205 colon
  GI50: 3.06 µM
  TGI: 11 µM
DU-145 prostate
  GI50: 2.65 µM
  TGI: > 100 µM
EKVX NSCLC
  GI50: 4.63 µM
  TGI: > 100 µM
HCC-2998 colon
  GI50: 6.76 µM
  TGI: > 100 µM
HCT-116 colon
  GI50: 1.08 µM
  TGI: > 100 µM
HCT-15 colon
  GI50: 2.28 µM
  TGI: > 100 µM
HL-60(TB) leukemia
  GI50: 2.07 µM
  TGI: 7.65 µM
HOP-62 NSCLC
  GI50: 4.07 µM
  TGI: > 100 µM
HOP-92 NSCLC
  GI50: 9.92 µM
  TGI: > 100 µM
HS 578T breast
  GI50: 2.41 µM
  TGI: > 100 µM
HT29 colon
  GI50: 2.3 µM
  TGI: > 100 µM
IGROV1 ovarian
  GI50: 3.93 µM
  TGI: > 100 µM
K-562 leukemia
  GI50: 0.926 µM
  TGI: > 100 µM
KM12 colon
  GI50: 1.55 µM
  TGI: > 100 µM
LOX IMVI melanoma
  GI50: 3.77 µM
  TGI: > 100 µM
MALME-3M melanoma
  GI50: 4.25 µM
  TGI: > 100 µM
MCF7 breast
  GI50: 0.921 µM
  TGI: > 100 µM
MDA-MB-231 breast
  GI50: 5.75 µM
  TGI: > 100 µM
MOLT-4 leukemia
  GI50: 4.74 µM
  TGI: > 100 µM
NCI-H226 lung
  GI50: 4.44 µM
  TGI: > 100 µM
NCI-H23 lung
  GI50: 4.61 µM
  TGI: > 100 µM
NCI-H460 lung
  GI50: 2.96 µM
  TGI: > 100 µM
NCI-H522 lung
  GI50: 2.34 µM
  TGI: > 100 µM
NCI/ADR-RES ovarian
  GI50: 4.21 µM
  TGI: 63.9 µM
OVCAR-3 ovarian
  GI50: 0.992 µM
  TGI: 6.34 µM
OVCAR-4 ovarian
  GI50: 28.2 µM
  TGI: > 100 µM
OVCAR-5 ovarian
  GI50: 7.63 µM
  TGI: > 100 µM
OVCAR-8 ovarian
  GI50: 8.92 µM
  TGI: > 100 µM
PC-3 prostate
  GI50: 2.1 µM
  TGI: > 100 µM
RPMI-8226 leukemia
  GI50: 4.05 µM
  TGI: > 100 µM
SF-268 CNS
  GI50: 5.44 µM
  TGI: > 100 µM
SF-295 CNS
  GI50: 1.11 µM
  TGI: > 100 µM
SF-539 CNS
  GI50: 1.9 µM
  TGI: 6.75 µM
SK-MEL-2 melanoma
  GI50: 4.72 µM
  TGI: > 100 µM
SK-MEL-28 melanoma
  GI50: 5.68 µM
  TGI: > 100 µM
SK-MEL-5 melanoma
  GI50: 2.51 µM
  TGI: > 100 µM
SK-OV-3 ovarian
  GI50: 2.78 µM
  TGI: > 100 µM
SN12C renal
  GI50: 4.86 µM
  TGI: > 100 µM
SNB-19 CNS
  GI50: 2.87 µM
  TGI: > 100 µM
SNB-75 CNS
  GI50: 2.18 µM
  TGI: > 100 µM
SR leukemia
  GI50: 0.719 µM
  TGI: > 100 µM
SW-620 colon
  GI50: 2.48 µM
  TGI: > 100 µM
T-47D breast
  GI50: 3.91 µM
  TGI: > 100 µM
TK-10 renal
  GI50: 11.1 µM
  TGI: > 100 µM
U251 CNS
  GI50: 4.18 µM
  TGI: > 100 µM
UACC-257 melanoma
  GI50: > 100 µM
  TGI: > 100 µM
UACC-62 melanoma
  GI50: 1.03 µM
  TGI: > 100 µM
UO-31 renal
  GI50: 6.87 µM
  TGI: > 100 µM
